Results published in patent US7419984B2, “Pyrimidines and uses thereof” (Cell Therapeutics, Inc., priority 2002, dated 2008).

Target: T1, human LPAAT-β (Homo sapiens, UniProt O15120)
T1 construct: the full-length human LPAAT-β cDNA was amplified by PCR; poly-histidine tag (N); made in house; host or cells: Sf9 insect cells (baculovirus, pFastBac HTc); the membrane fraction was used as the enzyme
T1 sequence (O15120 24-278): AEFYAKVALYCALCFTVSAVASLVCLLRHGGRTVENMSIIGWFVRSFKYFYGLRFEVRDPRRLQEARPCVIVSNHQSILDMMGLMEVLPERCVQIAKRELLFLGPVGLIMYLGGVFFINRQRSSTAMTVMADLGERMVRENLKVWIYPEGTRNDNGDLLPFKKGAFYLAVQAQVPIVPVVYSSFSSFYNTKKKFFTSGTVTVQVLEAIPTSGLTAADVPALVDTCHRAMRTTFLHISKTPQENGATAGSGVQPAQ
Assay: LPAAT-β cell-free assay
Format: biochemical
Conditions: Sf9 cell membrane overexpressing recombinant LPAAT-β
Procedure, shortened: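 Membranes from Sf9 cells expressing His/myc-tagged full-length human LPAAT-β were used in HEPES-saline pH 7.5 with 1 mg/ml BSA. Compound was added from a 200 μM DMSO stock, and reaction with 18:1-CoA and sn-1-18:1 lysoPA (1 mM stocks) ran 25 min at RT. Released CoA was detected with DTNB at 405 nm; a radiometric variant used 200 μM [14C]18:1-CoA and 200 μM lysoPA.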

Compound	IC50 [nM]
Cc1ccc(Br)cc1-c1cc(Nc2ccc(CCCCO)cc2)nc(N)n1 [Example 101, 4-{4-[2-Amino-6-(5-bromo-2-methyl-phenyl)-pyrimidin4-ylamino]-phenyl}-butan-1-ol]	290
CC(=O)c1ccc(Nc2cc(-c3cc(Cl)ccc3C)nc(N)n2)cc1 [Example 123, 1-{4-[2-amino-6-(5-chloro-2-methylphenyl)pyrimidin4-ylamino]phenyl}ethanone]	150
CCOc1ccc(Br)cc1-c1cc(Nc2ccc([N+](=O)[O-])cc2)nc(N)n1 [Example 133, 6-(5-Bromo-2-ethoxy-phenyl)-N*4*-(4-nitro-phenyl)-pyrimidine-2,4-diamine]	15
Nc1nc(Nc2ccc(Cl)cc2)cc(-c2cc(Cl)ccc2Cl)n1 [Example 20, N*4*-(4-Chloro-phenyl)-6-(2,5-dichloro-phenyl)-pyrimidine-2,4-diamine]	20
CCOc1ccc(Br)cc1-c1cc(Nc2ccc(C(N)=O)cc2)nc(N)n1 [Example 186, 4-[2-Amino-6-(5-bromo-2-ethoxy-phenyl)-pyrimidin4-ylamino]-benzamide]	740
CCOc1ccc(Br)cc1-c1cc(Nc2ccc(C(=O)c3ccccc3)cc2)nc(N)n1 [Example 59, {4-[2-Amino-6-(5-bromo-2-ethoxy-phenyl)-pyrimidin4-ylamino]-phenyl}-phenyl-methanone]	210
CC(C)Oc1ccc(Br)cc1-c1cc(Nc2ccc(Cl)cc2)nc(N)n1 [Example 136, 6-(5-Bromo-2-isopropoxy-phenyl)-N*4*-(4-chloro-phenyl)-pyrimidine-2,4-diamine]	170
COc1ccc(Cl)cc1-c1cc(N)nc(Nc2ccc3cn[nH]c3c2)n1 [Example 35, 6-(5-Chloro-2-methoxyphenyl)-N*2*-(1H-indazol-6yl)-pyrimidine-2,4-diamine]	800
CCOc1ccc(Br)cc1-c1cc(Nc2ccc(C(C)=O)cc2)nc(N)n1 [Example 127, 1-{4-[2-amino-6-(5-bromo-2-ethoxyphenyl)pyrimidin-4-ylamino]phenyl}ethanone]	34
COc1ccc(Br)cc1-c1cc(Nc2ccc(CCO)cc2)nc(N)n1 [Example 151, 2-{4-[2-Amino-6-(5-bromo-2-methoxy-phenyl)-pyrimidin-4-ylamino]-phenyl}-ethanol]	55
Nc1nc(Nc2ccc([N+](=O)[O-])cc2)cc(-c2cc(Br)ccc2OCc2ccccc2)n1 [Example 177, 6-(2-Benzyloxy-5-bromo-phenyl)-N*4*-(4-nitro-phenyl)-pyrimidine-2,4-diamine]	2
COc1ccc(Cl)cc1-c1cc(Nc2ccc3cn[nH]c3c2)nc(N)n1 [Example 3, 6-(5-Chloro-2-methoxy-phenyl)-N*4*-(1H-indazol-6-yl)-pyrimidine-2,4-diamine]	80
Cc1ccc(Nc2cc(-c3cc(Cl)ccc3C)nc(N)n2)cc1 [Example 26, 6-(5-Chloro-2-methyl-phenyl)-N*4*-p-tolyl-pyrimidine-2,4-diamine]	94
Cc1ccc(Cl)cc1-c1cc(Nc2ccc(C(CO)CO)cc2)nc(N)n1 [Example 116, 2-{4-[2-Amino-6-(5-chloro-2-methyl-phenyl)-pyrimidin-2-yl-amino]-phenyl}-propane-1,3-diol]	1100
Nc1nc(Nc2ccc(Cl)cc2)cc(-c2ccccc2)n1 [Example 106, N*4*-(4-Chloro-phenyl)-6-phenyl-pyrimidine-2,4-diamine]	1100
CCOC(=O)c1cccc(Nc2cc(-c3cc(Cl)ccc3C)nc(N)n2)c1 [Example 114, 3-[2-Amino-6-(5-chloro-2-methyl-phenyl)-pyrimidin4-ylamino]-benzoic acid ethyl ester]	42
COc1ccc(Nc2cc(-c3cc(Cl)ccc3Cl)nc(N)n2)cc1 [Example 16, 6-(2,5-Dichloro-phenyl)-N*4*-(4-methoxy-phenyl)-pyrimidine-2,4-diamine]	120
CCc1ccc(Cl)cc1-c1cc(Nc2ccc(Cl)cc2)nc(N)n1 [Example 167, 6-(5-Chloro-2-ethyl-phenyl)-N*-4*-(4-chloro-phenyl)-pyrimidine-2,4-diamine]	180
Cc1ccc(Br)cc1-c1cc(Nc2ccc([N+](=O)[O-])cc2)nc(N)n1 [Example 88, 6-(5-Bromo-2-methyl-phenyl)-N*4*-(4-nitro-phenyl)-pyrimidine-2,4-diamine]	21
N#Cc1ccc(Nc2cc(-c3cc(Cl)ccc3Cl)nc(N)n2)cc1 [Example 24, 4-[2-Amino-6-(2,5-dichloro-phenyl)-pyrimidin-4-ylamino]-benzonitrile]	29
Cc1ccc(Br)cc1-c1cc(Nc2ccc(C#N)cc2)nc(N)n1 [Example 86, 4-[2-Amino-6-(5-bromo-2-methyl-phenyl)-pyrimidin-4-ylamino]-benzonitrile]	40

Compound	IC50 [nM]
CCOC(=O)c1cccc(Nc2cc(-c3cc(Br)ccc3OC)nc(N)n2)c1 [Example 171, 3-[2-Amino-6-(5-bromo-2-methoxy-phenyl)-pyrimidin4-ylamino]-benzoic acid ethyl ester]	260
CCOc1ccc(Cl)cc1-c1cc(Nc2ccc(C(C)=O)cc2)nc(N)n1 [Example 121, 1-{4-[2-amino-6-(5-chloro-2-ethoxyphenyl)pyrimidin-4-ylamino]phenyl}ethanone]	49
CCOc1ccc(Br)cc1-c1cc(Nc2ccc(C(C)O)cc2)nc(N)n1 (centres unmarked) [Example 134]	110
Nc1nc(Nc2ccc(CO)cc2)cc(-c2cc(Cl)ccc2Cl)n1 [Example 22, {4-[2-Amino-6-(2,5-dichloro-phenyl)-pyrimidin-4-yl-amino]-phenyl}-methanol]	60
CCCCOc1ccc(Br)cc1-c1cc(Nc2ccc(Cl)cc2)nc(N)n1 [Example 148, 6-(5-Bromo-2-butoxy-phenyl)-N*4*-(4-chloro-phenyl)-pyrimidine-2,4-diamine]	5
CCOc1ccc(Br)cc1-c1cc(Nc2ccc(CCO)cc2)nc(N)n1 [Example 70, 2-{4-[2-Amino-6-(5-bromo-2-ethoxy-phenyl)-pyrimidin-4-ylamino]-phenyl}-ethanol]	29
Nc1nc(Nc2ccc([N+](=O)[O-])cc2)cc(-c2cc(Cl)ccc2Cl)n1 [Example 25, 6-(2,5-Dichloro-phenyl)-N*4*-(4-nitro-phenyl)-pyrimidine-2,4-diamine]	9
CCOc1ccc(Br)cc1-c1cc(Nc2ccc(C(=O)C(F)(F)F)cc2)nc(N)n1 [Example 131, 1-{4-[2-Amino-6-(5-bromo-2-ethoxy-phenyl)-pyrimidin-4-ylamino]-phenyl}-2,2,2-trifluoro-ethanone]	12
Cc1ccc(Cl)cc1-c1cc(Nc2ccc(CCCCO)cc2)nc(N)n1 [Example 110, 4-{4-[2-Amino-6-(5-Chloro-2-methyl-phenyl)-pyrimidin-4-ylamino]-phenyl}-butan-1-ol]	210
Nc1nc(Nc2ccc(Cl)cc2)cc(-c2cc(Br)ccc2Cl)n1 [Example 187, 6-(5-Bromo-2-chloro-phenyl)-N*4*-(4-chloro-phenyl)-pyrimidine-2,4-diamine]	22
Nc1nc(Nc2ccc(C(F)(F)F)cc2)cc(-c2cccc(Br)c2)n1 [Example 119, 6-(3-Bromo-phenyl)-N*4*-(4-trifluoromethyl-phenyl)-pyrimidine-2,4-diamine]	610
CCOc1ccc(Cl)cc1-c1cc(Nc2ccc(F)cc2)nc(N)n1 [Example 94, 6-(5-Chloro-2-ethoxy-phenyl)-N*4*-(4-fluoro-phenyl)-pyrimidine-2,4-diamine]	32
CC(=NO)c1ccc(Nc2cc(-c3cc(Cl)ccc3Cl)nc(N)n2)cc1 [Example 154, 1-{4-[2-Amino-6-(2,5-dichloro-phenyl)-pyrimidin-4-yl-amino]-phenyl}-ethanone oxime]	98
CCOc1ccc(Cl)cc1-c1cc(Nc2ccc(CO)cc2)nc(N)n1 [Example 44, {4-[2-Amino-6-(5-chloro-2-ethoxy-phenyl)-pyrimidin-4-ylamino]-phenyl}-methanol]	75
Nc1nc(Nc2ccc(C(F)(F)F)cc2)cc(-c2cc(Cl)cc(Cl)c2Cl)n1 [Example 102, 6-(2,3,5-trichloro-phenyl) N*4*-(4-trifluoromethyl-phenyl)-pyrimidine-2,4-diamine]	500
CNC(=O)c1cc(Nc2cc(-c3cc(Br)ccc3OC)nc(N)n2)ccc1Cl [Example 184, 5-[2-Amino-6-(5-bromo-2-methoxy-phenyl)-pyrimidin4-ylamino]-2-chloro-N-methyl-benzamide]	200
Nc1nc(Nc2ccc(Cl)cc2)cc(-c2cc(Br)ccc2OCCN2CCOCC2)n1 [Example 149, 6-[5-Bromo-2-(2-morpholin4-yl-ethoxy)-phenyl]-N*4*-(4-chloro-phenyl)-pyrimidine-2,4-diamine]	71
Nc1nc(Nc2ccc(Cl)cc2)cc(-c2cc(Cl)cc(Cl)c2Cl)n1 [Example 98, N*4*-(4-Chloro-phenyl)-6-(2,3,5-trichloro-phenyl)-pyrimidine-2,4-diamine]	91
COc1ccc(Cl)cc1-c1cc(Nc2ccc(C)cc2)nc(N)n1 [Example 1, 6-(5-Chloro-2-methoxy-phenyl)-N*4*-p-tolyl-pyrimidine-2,4-diamine]	120
CCOc1ccc(Br)cc1-c1cc(Nc2ccc(C)c(C)c2)nc(N)n1 [Example 132, 6-(5-Bromo-2-ethoxy-phenyl)-N*4*-(3,4-dimethyl-phenyl)-pyrimidine-2,4-diamine]	140
